Experimental data taken from patent publication US20260193293A1, “PEPTIDES CAPABLE OF INHIBITING PROTEIN-PROTEIN INTERACTIONS AT GABAB1A SUBUNIT AND USES THEREOF” (UNIVERSITY OF COPENHAGEN, priority 2022, published 2026).
Where two headings read alike, the source gives them in different places. Residues, ends and D or L forms follow the SMILES beside them.

Molecular target: Sushi domains (SD1/2) protein
Assay: Fluorescence polarization (FP) competition assay with AJAP-1probe, calculated Ki
Format: binding
How it was run: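 Competition against 25 nM TAMRA-labelled peptide probe binding SD1/2, in PBS pH 7.4 with 1% BSA at rt, read at 530/580 nm. IC50 from sigmoidal dose-response fits, at least triplicate; Ki calculated from IC50 using probe Kd from saturation binding.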

[1] = CPP tagged peptides overview, SD1/2 binding affinity, mean ± SEM, n ≥ 3, read-out: Ki
[2] = Table 14, CPPs tagged peptides, read-out: Ki (nM) mean ± SEM
[3] = Table 1, affinity maturation, mean ± SEM, n ≥ 3, read-out: Ki
[4] = Table 13, peptides for affinity maturation, read-out: Ki (nM) mean ± SEM

| SMILES | Ki [1] [nM] | Ki [2] [nM] | Ki [3] [nM] | Ki [4] [nM] |
| --- | --- | --- | --- | --- |
| CC[C@H](C)[C@H](NC(=O)[C@H](Cc1c[nH]c2ccccc12)NC(=O)[C@H](CC(=O)O)NC(=O)[C@H](CC(=O)O)NC(=O)[C@H](CC(=O)O)NC(=O)[C@H](CCC(=O)O)NC(C)=O)C(=O)N[C@@H](CC(=O)O)C(=O)N[C@@H](Cc1c[nH]c2ccccc12)C(=O)NCC(=O)N1CCC[C@H]1C(=O)N[C@H](C(=O)N[C@@H](CO)C(=O)N[C@@H](CC(=O)O)C(=O)N[C@@H](CC(=O)O)C(=O)N[C@@H](CC(=O)O)C(=O)NCC(=O)NCC(=O)NCC(=O)NCC(=O)N[C@@H](CO)C(=O)N[C@@H](CCCNC(=N)N)C(=O)N[C@@H](CCCNC(=N)N)C(=O)N[C@@H](CCCNC(=N)N)C(=O)N[C@@H](CCCNC(=N)N)C(=O)N[C@@H](CCCNC(=N)N)C(=O)N[C@@H](CCCNC(=N)N)C(=O)N[C@@H](CCCNC(=N)N)C(=O)N[C@@H](CCCNC(=N)N)C(N)=O)[C@@H](C)O [Peptide 17-FL-R8] (Ac-EDDDWIDWGPTSDDDGGGGSRRRRRRRR-NH2) | 147 ± 9 | 147 ± 9 |  |  |
| CC[C@H](C)[C@H](NC(=O)[C@H](Cc1ccc(O)cc1)NC(=O)[C@H](CC(=O)O)NC(=O)[C@H](CC(=O)O)NC(=O)[C@H](CCC(=O)O)NC(C)=O)C(=O)N[C@@H](CC(=O)O)C(=O)N[C@@H](Cc1c[nH]c2ccccc12)C(=O)N[C@@H](Cc1ccc(O)cc1)C(=O)N[C@@H](CC(=O)O)C(=O)N[C@@H](CO)C(=O)N[C@@H](CC(=O)O)C(=O)N[C@@H](CC(=O)O)C(=O)N[C@@H](CC(=O)O)C(N)=O [Peptide 18] (Ac-EDDYIDWYDSDDD-NH2) |  |  | 4.6 ± 0.3 | 4.6 ± 0.3 |
| CC[C@H](C)[C@H](NC(=O)[C@H](Cc1ccc(O)cc1)NC(=O)[C@H](CC(=O)O)NC(=O)[C@H](CC(=O)O)NC(=O)[C@H](CCC(=O)O)NC(C)=O)C(=O)N[C@@H](CC(=O)O)C(=O)N[C@@H](Cc1c[nH]c2ccccc12)C(=O)NCC(=O)N1CCC[C@H]1C(=O)N[C@H](C(=O)N[C@@H](CO)C(=O)N[C@@H](CC(=O)O)C(=O)N[C@@H](CC(=O)O)C(=O)N[C@@H](CC(=O)O)C(N)=O)[C@@H](C)O [Peptide 19] (Ac-EDDYIDWGPTSDDD-NH2) |  |  | 3.8 ± 0.2 | 3.8 ± 0.2 |

Further lines, results first:

| Ki [1] [nM] | Ki [2] [nM] | Ki [3] [nM] | Ki [4] [nM] | SMILES |
| --- | --- | --- | --- | --- |
| 65 ± 1 | 65.3 ± 1 |  |  | CC[C@H](C)[C@H](NC(=O)[C@H](Cc1c[nH]c2ccccc12)NC(=O)[C@H](CC(=O)O)NC(=O)[C@H](CC(=O)O)NC(=O)[C@H](CC(=O)O)NC(=O)[C@H](CCC(=O)O)NC(C)=O)C(=O)N[C@@H](CC(=O)O)C(=O)N[C@@H](Cc1c[nH]c2ccccc12)C(=O)N[C@@H](Cc1ccc(O)cc1)C(=O)N[C@@H](CC(=O)O)C(=O)N[C@@H](CO)C(=O)N[C@@H](CC(=O)O)C(=O)N[C@@H](CC(=O)O)C(=O)N[C@@H](CC(=O)O)C(=O)N[C@@H](CCCNC(=N)N)C(=O)N[C@@H](CCCNC(=N)N)C(=O)N[C@@H](CCCNC(=N)N)C(=O)N[C@@H](CCCNC(=N)N)C(=O)N[C@@H](CCCNC(=N)N)C(=O)N[C@@H](CCCNC(=N)N)C(=O)N[C@@H](CCCNC(=N)N)C(=O)N[C@@H](CCCNC(=N)N)C(N)=O [Peptide 16-R8] (Ac-EDDDWIDWYDSDDDRRRRRRRR-NH2) |
| 100 ± 4 | 99.5 ± 4 |  |  | CC[C@H](C)[C@H](NC(=O)[C@H](Cc1c[nH]c2ccccc12)NC(=O)[C@H](CC(=O)O)NC(=O)[C@H](CC(=O)O)NC(=O)[C@H](CC(=O)O)NC(=O)[C@H](CCC(=O)O)NC(C)=O)C(=O)N[C@@H](CC(=O)O)C(=O)N[C@@H](Cc1c[nH]c2ccccc12)C(=O)N[C@@H](Cc1ccc(O)cc1)C(=O)N[C@@H](CC(=O)O)C(=O)N[C@@H](CO)C(=O)N[C@@H](CC(=O)O)C(=O)N[C@@H](CC(=O)O)C(=O)N[C@@H](CC(=O)O)C(=O)N[C@@H](CCC(=O)O)C(=O)N[C@@H](C)C(=O)N[C@@H](C)C(=O)N[C@@H](C)C(=O)N[C@@H](CCCCN)C(=O)N[C@@H](CCCNC(=N)N)C(=O)N[C@@H](CCCNC(=N)N)C(=O)N[C@@H](CCCNC(=N)N)C(=O)N[C@@H](CCCNC(=N)N)C(=O)N[C@@H](CCCNC(=N)N)C(=O)N[C@@H](CCCNC(=N)N)C(=O)N[C@@H](CCCNC(=N)N)C(=O)N[C@@H](CCCNC(=N)N)C(N)=O [Peptide 16-RL-R8] (Ac-EDDDWIDWYDSDDDEAAAKRRRRRRRR-NH2) |
| 123 ± 4 | 123 ± 4 |  |  | CC[C@H](C)[C@H](NC(=O)[C@H](Cc1c[nH]c2ccccc12)NC(=O)[C@H](CC(=O)O)NC(=O)[C@H](CC(=O)O)NC(=O)[C@H](CC(=O)O)NC(=O)[C@H](CCC(=O)O)NC(C)=O)C(=O)N[C@@H](CC(=O)O)C(=O)N[C@@H](Cc1c[nH]c2ccccc12)C(=O)NCC(=O)N1CCC[C@H]1C(=O)N[C@H](C(=O)N[C@@H](CO)C(=O)N[C@@H](CC(=O)O)C(=O)N[C@@H](CC(=O)O)C(=O)N[C@@H](CC(=O)O)C(=O)N[C@@H](CCCNC(=N)N)C(=O)N[C@@H](CCCNC(=N)N)C(=O)N[C@@H](CCCNC(=N)N)C(=O)N[C@@H](CCCNC(=N)N)C(=O)N[C@@H](CCCNC(=N)N)C(=O)N[C@@H](CCCNC(=N)N)C(=O)N[C@@H](CCCNC(=N)N)C(=O)N[C@@H](CCCNC(=N)N)C(N)=O)[C@@H](C)O [Peptide 17-R8] (Ac-EDDDWIDWGPTSDDDRRRRRRRR-NH2) |
| 139 ± 2 | 139 ± 2 |  |  | CC[C@H](C)[C@H](NC(=O)[C@H](Cc1c[nH]c2ccccc12)NC(=O)[C@H](CC(=O)O)NC(=O)[C@H](CC(=O)O)NC(=O)[C@H](CC(=O)O)NC(=O)[C@H](CCC(=O)O)NC(C)=O)C(=O)N[C@@H](CC(=O)O)C(=O)N[C@@H](Cc1c[nH]c2ccccc12)C(=O)NCC(=O)N1CCC[C@H]1C(=O)N[C@H](C(=O)N[C@@H](CO)C(=O)N[C@@H](CC(=O)O)C(=O)N[C@@H](CC(=O)O)C(=O)N[C@@H](CC(=O)O)C(=O)N[C@@H](CCC(=O)O)C(=O)N[C@@H](C)C(=O)N[C@@H](C)C(=O)N[C@@H](C)C(=O)N[C@@H](CCCCN)C(=O)N[C@@H](CCCNC(=N)N)C(=O)N[C@@H](CCCNC(=N)N)C(=O)N[C@@H](CCCNC(=N)N)C(=O)N[C@@H](CCCNC(=N)N)C(=O)N[C@@H](CCCNC(=N)N)C(=O)N[C@@H](CCCNC(=N)N)C(=O)N[C@@H](CCCNC(=N)N)C(=O)N[C@@H](CCCNC(=N)N)C(N)=O)[C@@H](C)O [Peptide 17-RL-R8] (Ac-EDDDWIDWGPTSDDDEAAAKRRRRRRRR-NH2) |
| 79 ± 1 | 78.5 ± 1 |  |  | CC[C@H](C)[C@H](NC(=O)[C@H](Cc1c[nH]c2ccccc12)NC(=O)[C@H](CC(=O)O)NC(=O)[C@H](CC(=O)O)NC(=O)[C@H](CC(=O)O)NC(=O)[C@H](CCC(=O)O)NC(C)=O)C(=O)N[C@@H](CC(=O)O)C(=O)N[C@@H](Cc1c[nH]c2ccccc12)C(=O)NCC(=O)N1CCC[C@H]1C(=O)N[C@H](C(=O)N[C@@H](CO)C(=O)N[C@@H](CC(=O)O)C(=O)N[C@@H](CC(=O)O)C(=O)N[C@@H](CC(=O)O)C(=O)N[C@@H](Cc1ccc(O)cc1)C(=O)NCC(=O)N[C@@H](CCCNC(=N)N)C(=O)N[C@@H](CCCCN)C(=O)N[C@@H](CCCCN)C(=O)N[C@@H](CCCNC(=N)N)C(=O)N[C@@H](CCCNC(=N)N)C(=O)N[C@@H](CCC(N)=O)C(=O)N[C@@H](CCCNC(=N)N)C(=O)N[C@@H](CCCNC(=N)N)C(=O)N[C@@H](CCCNC(=N)N)C(N)=O)[C@@H](C)O [Peptide 17-Tat] (Ac-EDDDWIDWGPTSDDDYGRKKRRQRRR-NH2) |
